Data taken from publication PMC9967118, “Influence of Mutations of Conserved Arginines on Neuropeptide Binding in the DPP III Active Site” (Molecules, 2023).
Residue numbers refer to the chain shown, from its start. Where two headings read alike, the source gives them in different places. Where no end group is shown, it is not given here.

Columns and labels:
[1] = target: T1, Human DPP3 wild-type (WT) (Homo sapiens, UniProt Q9NY33); test: Inhibition of DPP III catalyzed hydrolysis of Arg2-2NA, wild-type enzyme; assay type: biochemical
T1 construct: made in house; host or cells: E. coli
T1 sequence (Q9NY33 1-737): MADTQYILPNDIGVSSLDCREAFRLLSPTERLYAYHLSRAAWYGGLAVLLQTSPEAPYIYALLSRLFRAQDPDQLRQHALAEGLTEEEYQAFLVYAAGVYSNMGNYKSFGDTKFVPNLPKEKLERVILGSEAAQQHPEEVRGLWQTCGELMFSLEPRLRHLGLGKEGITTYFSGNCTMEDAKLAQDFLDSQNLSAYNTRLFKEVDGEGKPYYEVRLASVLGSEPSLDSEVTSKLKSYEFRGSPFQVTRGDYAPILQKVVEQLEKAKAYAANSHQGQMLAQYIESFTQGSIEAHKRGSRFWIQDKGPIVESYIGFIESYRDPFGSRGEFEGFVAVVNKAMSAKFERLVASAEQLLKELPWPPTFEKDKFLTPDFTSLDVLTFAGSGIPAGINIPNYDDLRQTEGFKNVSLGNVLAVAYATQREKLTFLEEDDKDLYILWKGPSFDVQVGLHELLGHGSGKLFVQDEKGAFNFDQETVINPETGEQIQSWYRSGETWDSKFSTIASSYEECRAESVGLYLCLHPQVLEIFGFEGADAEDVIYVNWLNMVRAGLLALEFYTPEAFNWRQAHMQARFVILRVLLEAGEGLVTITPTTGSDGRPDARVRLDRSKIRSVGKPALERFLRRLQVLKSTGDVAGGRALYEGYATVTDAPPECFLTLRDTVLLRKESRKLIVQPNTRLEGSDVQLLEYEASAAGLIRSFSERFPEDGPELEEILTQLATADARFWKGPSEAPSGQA
Experimental: (§1) Human DPP3 wild-type (WT) and variants R669A and R669M were expressed in E. coli and purified using IMAC, as described in detail recently. Briefly, variants were prepared using a QuikChange II site-directed mutagenesis kit (Agilent Technologies, Santa Clara, CA, USA) while following the manufacturer’s instructions, with the hDPP3 gene on a pET21a plasmid as template. Complementary primer pairs were ordered from Macrogen Europe (The Netherlands) with the following sequences:
(§2) Proteins were expressed in E. coli for approximately 20 h at 18 °C, shaken at 120 rpm, and paired with 0.25 mM IPTG as an expression inductor. Cell pellets were lysed with lysosyme and with sonication; the lysate was then purified with DNAse I and through centrifugation, and affinity chromatography was performed on a Rotigarose His/Ni column. Lysis, wash, and elution buffers contained imidazole at concentrations of 10 mM, 20 mM, and 300 mM, respectively, and all buffers contained 50 mM Tris pH = 8.0, 300 mM NaCl. Fractions were pooled based on protein concentration (determined by using a BioDrop microvolume spectrophotometer) and purity (assessed by SDS-PAGE), and they were desalted on a PD-10 column with 20 mM Tris-Cl buffer, pH = 7.5. Aliquots were frozen and stored at −80 °C.
(§3) Enzyme kinetics were measured using an Agilent Cary Eclipse fluorescence spectrophotometer (Agilent Technologies, Santa Clara, CA, USA) with Arg2-2NA as a substrate analog and fluorescent 2NA as the product of the peptidase reaction. The assay has been described in detail previously. Arg2-2NA and peptide in 20 mM Tris-Cl buffer pH = 7.4 were pre-incubated at 25 °C for 2 min before the reaction was started by adding the enzyme into the cuvette. Substrate concentrations ranged from 0.25 to 100 μM. The peptide (inhibitor) concentrations were chosen so the output could be easily measured. […] Three peptide concentrations were used for each peptide. The enzyme concentration was 1 nM in all measurements.

Human DPP3 variant R669A [2] = target: T2, Human DPP3 variant R669A (Homo sapiens, UniProt Q9NY33, R669A); test: Inhibition of DPP III catalyzed hydrolysis of Arg2-2NA, R669A variant; assay type: biochemical
T2 construct: made in house; host or cells: E. coli
T2 sequence (Q9NY33 1-737 R669A): T1 sequence (Q9NY33 1-737) with R669A
Experimental: as §1, §2, §3

Human DPP3 variant R669M [3] = target: T3, Human DPP3 variant R669M (Homo sapiens, UniProt Q9NY33, R669M); test: Inhibition of DPP III catalyzed hydrolysis of Arg2-2NA, R669M variant; assay type: biochemical
T3 construct: made in house; host or cells: E. coli
T3 sequence (Q9NY33 1-737 R669M): T1 sequence (Q9NY33 1-737) with R669M
Experimental: as §1, §2, §3

[4] = target: T1, Human DPP3 wild-type (WT); test: Michaelis–Menten test for the hydrolysis of Arg2-2NA, wild-type enzyme; assay type: biochemical; conditions: enzyme 1 nM, 20 mM Tris-Cl pH 7.4, 25 °C, best fit ± standard error
Experimental: as §1
as §2, with “Lysis, wash, and elution buffers contained imidazole at concentrations of 10 mM, 20 mM, and 300 mM, respectively, and all buffers contained 50 mM Tris pH = 8.0, 300 mM NaCl.” left out, “Aliquots were frozen and stored at −80 °C.” left out
(§4) Enzyme kinetics were measured using an Agilent Cary Eclipse fluorescence spectrophotometer (Agilent Technologies, Santa Clara, CA, USA) with Arg2-2NA as a substrate analog and fluorescent 2NA as the product of the peptidase reaction. […] The peptide (inhibitor) concentrations were chosen so the output could be easily measured. […]

Human DPP3 variant R669A [5] = target: T2, Human DPP3 variant R669A; test: Michaelis–Menten test for the hydrolysis of Arg2-2NA, R669A variant; assay type: biochemical; conditions: enzyme 1 nM, 20 mM Tris-Cl pH 7.4, 25 °C, best fit ± standard error
Experimental: as §1
as §2, with “Lysis, wash, and elution buffers contained imidazole at concentrations of 10 mM, 20 mM, and 300 mM, respectively, and all buffers contained 50 mM Tris pH = 8.0, 300 mM NaCl.” left out, “Aliquots were frozen and stored at −80 °C.” left out
as §4

Human DPP3 variant R669M [6] = target: T3, Human DPP3 variant R669M; test: Michaelis–Menten test for the hydrolysis of Arg2-2NA, R669M variant; assay type: biochemical; conditions: enzyme 1 nM, 20 mM Tris-Cl pH 7.4, 25 °C, best fit ± standard error
Experimental: as §1
as §2, with “Lysis, wash, and elution buffers contained imidazole at concentrations of 10 mM, 20 mM, and 300 mM, respectively, and all buffers contained 50 mM Tris pH = 8.0, 300 mM NaCl.” left out, “Aliquots were frozen and stored at −80 °C.” left out
as §4

DPP III = conditions: human renal epithelial cells; cited from earlier work
Description: (§5) Dipeptidyl peptidase III (DPP III, EC 3.4.14.4) is a monozinc metallopeptidase that hydrolyzes dipeptides from the N-terminus of its substrates consisting of three or more amino acids. DPP III is the only member of the M49 metallopeptidase family and the only metalloenzyme among dipeptidyl peptidases. This two-domain exopeptidase is broadly distributed in human tissues, where it participates in the final stages of protein turnover.

human DPP III (hDPP III) = system: human DPP III (hDPP III); design: method as in 2 sources, one per row (each row's own in cited_ref): ref 17 = [17]; PMID 35163780; doi:10.3390/ijms23031858; 17. Tomić A. Tomić S. Demystifying DPP III Catalyzed Peptide Hydrolysis—Computational Study of the Complete Catalytic Cycle of Human DPP III Catalyzed Tynorphin Hydrolysis Int. J. Mol. Sci. 2022 23 18 ||| ref 18 = [18]; PMID 36116590; doi:10.1016/j.ijbiomac.2022.09.119; 18. Karačić Z. Šupljika F. Tomić A. Brkljačić L. Paić A.T. Ćehić M. Tomić S. Neuropeptides, Substrates and Inhibitors of Human Dipeptidyl Peptidase III, Experimental and Computational Study—A New Subs; conditions: computational and experimental study of neuropeptides; cited from earlier work
Description: Despite the efforts of numerous scientists, knowledge about the role that DPP III might play in various physiological processes is still unclear. […] In this and in QM/MM studies ...

[7] = system: angiotensin II-infused hypertensive mice; conditions: cited from earlier work
Description: as §5

[8] = substrate 0.25–100 μM, fluorescence of 2NA
[9] = WT hDPP III 1 nM, substrate Arg2-2NA 0.25–100 μM, 20 mM Tris-Cl pH 7.4, 25 °C, 2 min pre-incubation, fluorescence of 2NA, competitive inhibition, best fit ± standard error, inhibitor tynorphin 1–50 nM, valorphin 15–150 nM
[10] = R669M hDPP III 1 nM, substrate Arg2-2NA 0.25–100 μM, 20 mM Tris-Cl pH 7.4, 25 °C, 2 min pre-incubation, fluorescence of 2NA, competitive inhibition, best fit ± standard error, tynorphin 1–5 μM, valorphin 0.75–11.2 μM

CC(C)C[C@H](NC(=O)[C@H](Cc1ccccc1)NC(=O)CNC(=O)CNC(=O)[C@@H](N)Cc1ccc(O)cc1)C(=O)O [Leu-enkephalin]
Ki [1]: 10400 ± 1400 nM
Ki (Human DPP3 variant R669A [2]): 52000 ± 5300 nM
Ki (Human DPP3 variant R669M [3]): 58000 ± 7000 nM
effects of the R669M and R669A mutations on the Ki (Human DPP3 variant R669M [3]; R669M versus R669A): the same

Arg2-2NA
effect of mutation of R669 to Ala or Met on inhibitory properties / binding (Human DPP3 variant R669A [2]; R669A or R669M versus WT, inhibitory assays): small
kcat [4]: 3.74 ± 0.07 s⁻¹
Km [4, 8]: 7.8 ± 0.6 µM
kcat (Human DPP3 variant R669A [5]): 2.24 ± 0.05 s⁻¹
Km (Human DPP3 variant R669A [5]; [8]): 3.4 ± 0.3 µM
kcat (Human DPP3 variant R669M [6]): 2.26 ± 0.03 s⁻¹
Km (Human DPP3 variant R669M [6]; [8]): 2.8 ± 0.2 µM

VVYPW [tynorphin]
Ki [1, 9]: 11.2 ± 0.8 nM
Ki (Human DPP3 variant R669A [2]): 328 ± 25 nM
Ki (Human DPP3 variant R669M [3]; [10]): 102 ± 16 nM

VVYPWTQ [valorphin]
Ki [1, 9]: 36.5 ± 2.9 nM
Ki (Human DPP3 variant R669A [2]): 1210 ± 224 nM
Ki (Human DPP3 variant R669M [3]; [10]): 406 ± 33 nM

angiotensin (1–7): peptide degraded by DPP III in human renal epithelial cells (DRVYIHP; Angiotensin 1-7; UniProt P01019 25-31, looked up)
degradation by DPP III (DPP III): DPP III degrades angiotensin (1–7)

β-casomorphin
in vitro substrate identification / substrate class with hDPP III (human DPP III (hDPP III)): in vitro substrates of hDPP III

B1: DPP III: zinc exopeptidase (EC 3.4.14.4), M49 family (protein, UniProt Q9NY33 2-737, looked up)
Dipeptidyl peptidase 3: ADTQYILPNDIGVSSLDCREAFRLLSPTERLYAYHLSRAAWYGGLAVLLQTSPEAPYIYALLSRLFRAQDPDQLRQHALAEGLTEEEYQAFLVYAAGVYSNMGNYKSFGDTKFVPNLPKEKLERVILGSEAAQQHPEEVRGLWQTCGELMFSLEPRLRHLGLGKEGITTYFSGNCTMEDAKLAQDFLDSQNLSAYNTRLFKEVDGEGKPYYEVRLASVLGSEPSLDSEVTSKLKSYEFRGSPFQVTRGDYAPILQKVVEQLEKAKAYAANSHQGQMLAQYIESFTQGSIEAHKRGSRFWIQDKGPIVESYIGFIESYRDPFGSRGEFEGFVAVVNKAMSAKFERLVASAEQLLKELPWPPTFEKDKFLTPDFTSLDVLTFAGSGIPAGINIPNYDDLRQTEGFKNVSLGNVLAVAYATQREKLTFLEEDDKDLYILWKGPSFDVQVGLHELLGHGSGKLFVQDEKGAFNFDQETVINPETGEQIQSWYRSGETWDSKFSTIASSYEECRAESVGLYLCLHPQVLEIFGFEGADAEDVIYVNWLNMVRAGLLALEFYTPEAFNWRQAHMQARFVILRVLLEAGEGLVTITPTTGSDGRPDARVRLDRSKIRSVGKPALERFLRRLQVLKSTGDVAGGRALYEGYATVTDAPPECFLTLRDTVLLRKESRKLIVQPNTRLEGSDVQLLEYEASAAGLIRSFSERFPEDGPELEEILTQLATADARFWKGPSEAPSGQA
blood pressure [7]: lowering blood pressure
